# Reference: article PMC4109836, “Analysis of the co-operative interaction between the allosterically regulated proteins GK and GKRP using tryptophan fluorescence” (Biochemical Journal, 2014)
# Where a chain is given by its changes, count along the chain named.
# Legend:
# [1] = biological target: T1, GK-WT (Homo sapiens, UniProt P35557); parameters: method as in ref 4 (a number printed in a supplementary file, which may have a reference list of its own: not looked up in the article's list); settings: cited from earlier work
# T1 construct: GST (cleaved yes); made in house; host or cells: Escherichia coli
# T1 sequence (P35557 1-465): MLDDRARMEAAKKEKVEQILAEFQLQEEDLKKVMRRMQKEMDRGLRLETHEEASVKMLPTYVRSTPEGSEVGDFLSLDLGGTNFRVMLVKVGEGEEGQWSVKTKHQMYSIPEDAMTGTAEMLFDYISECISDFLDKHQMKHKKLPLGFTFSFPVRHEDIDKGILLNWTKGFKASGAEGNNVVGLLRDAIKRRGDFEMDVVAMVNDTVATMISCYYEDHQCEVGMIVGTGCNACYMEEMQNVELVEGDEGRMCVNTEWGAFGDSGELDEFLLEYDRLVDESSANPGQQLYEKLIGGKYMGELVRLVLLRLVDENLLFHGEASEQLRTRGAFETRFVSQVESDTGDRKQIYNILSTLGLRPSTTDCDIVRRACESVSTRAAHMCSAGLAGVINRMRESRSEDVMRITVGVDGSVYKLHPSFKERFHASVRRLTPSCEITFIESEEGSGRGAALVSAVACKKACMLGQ
# [2] = biological target: T2, hGKRP (0.3 μM)–GK-W99R/W167F/W257F (1 μM) complex, GKRP-WT (Homo sapiens, UniProt P35557+Q14397, W167F/W257F/W99R); assay: Ligand binding by / disassembly of GKRP-WT–GK-W99R/W167F/W257F complex by TF of hGKRP
# T2 construct: FLAG; GST (cleaved yes); made in house; host or cells: Escherichia coli
# T2 sequence (Q14397 1-625): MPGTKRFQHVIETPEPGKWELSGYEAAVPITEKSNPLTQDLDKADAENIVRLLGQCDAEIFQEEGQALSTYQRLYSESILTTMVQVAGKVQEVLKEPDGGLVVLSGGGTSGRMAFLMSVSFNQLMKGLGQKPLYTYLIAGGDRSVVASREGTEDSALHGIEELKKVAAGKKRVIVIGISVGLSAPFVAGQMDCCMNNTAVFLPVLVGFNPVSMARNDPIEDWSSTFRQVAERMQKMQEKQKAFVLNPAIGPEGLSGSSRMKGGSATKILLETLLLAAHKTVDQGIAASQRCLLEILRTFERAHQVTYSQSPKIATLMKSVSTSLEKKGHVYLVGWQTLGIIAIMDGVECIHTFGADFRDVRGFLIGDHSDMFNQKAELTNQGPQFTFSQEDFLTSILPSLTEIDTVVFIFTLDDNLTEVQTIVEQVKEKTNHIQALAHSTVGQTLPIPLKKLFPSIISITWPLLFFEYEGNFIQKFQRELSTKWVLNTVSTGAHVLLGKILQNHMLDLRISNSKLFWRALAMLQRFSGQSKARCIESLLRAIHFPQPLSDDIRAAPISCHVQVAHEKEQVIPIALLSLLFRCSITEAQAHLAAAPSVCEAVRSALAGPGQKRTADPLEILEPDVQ
# T2 sequence (P35557 1-465 W99R/W167F/W257F): T1 sequence (P35557 1-465) with W99R, W167F, W257F
# Experimental: Spectra were measured with a Fluorolog-3-21 Jobin-Yvon Spex Instrument SA equipped with a 450 W Xenon lamp for excitation and a cooled R2658P Hamamatsu photomultiplier tube for detection. For all measurements, 90° geometry was employed and 295 nm excitation wavelengths were used to observe fluorescence emission in the 300–500 nm range. For TF, spectra slit width was set to provide a bandpath of 3 nm for excitation and 3 nm for emission. Spectra were corrected for instrumental response using Spex instrument software. A thermostatically controlled cell holder maintained sample temperature at 20°C. A thermocoupler was used to measure sample temperature. The buffer used contained 20 mM phosphate, 50 mM KCl, 1 mM EDTA and 1 mM DTT (pH 7.2).
# Fluorescence data were obtained via the stepwise addition of the appropriate amount of non-fluorescent GK-W99R/W167F/W257F to GKRP in a fluorescence cuvette. […] The change in GKRP protein fluorescence during titration was also measured using time-dependent scans. A manual procedure was used such that a typical titration with 10–12 additions required 20–25 min to perform. The same buffer as described above was routinely used unless stated otherwise. The bandpath was 0.5 nm at 295 nm for excitation and 12 nm at 340 nm for emission. […] For some graphical presentations the linear form of the Hill equation was used: log[F/(Fsat−F)]=H log x−H log KD [46].
# [3] = addition of 6.6 mM D-glucose, 0.3 μM GKRP and 1 μM GK, pH 7.2, mono ExpDecay fit
# [4] = ligand titration of 3:1 GK–GKRP-WT complex, 20°C
smiles,measurement,setting,value
"OC[C@H]1OC(O)[C@H](O)[C@@H](O)[C@@H]1O (stereo partly drawn) [D-Glucose, D-glucose]",H (glucose),[1],1.77
same,glucose S0.5,[1],7.5 mM
same,A (amplitude) of time-dependent decrease in GKRP-WT TF,[2]; [3],0.04
same,τ of time-dependent decrease in GKRP-WT TF,[2]; [3],11 s
same,H,[2]; [4],1
same,ΔF (relative fluorescence change at 340 nm),[2]; [4],−0.065
same,Kd,"[2]; ligand titration of 3:1 GK–GKRP-WT complex, 20°C, read-out: Kd (apparent)",12 mM
